Laboratory results published in patent US20230064490A1, “FLUORESCENT PROTEIN BIOSENSOR FOR DETECTION OF KINASE ACTIVITY” (Lucidicor Inc., priority 2018, published 2023).

Each compound was assayed on PKA (assay: PKA-PhosFluor fluorescence in transfected HEK-293 cells treated with drug). Details: HEK-293 cells transfected with PKA-PhosFluor; excitation 488 nm, emission 530 nm; 6 hr after addition of drug.
Type: cell-based, human
Description: PKA-PhosFluor and cat_PKA are transcribed from different plasmids maintained by separate antibiotic resistance genes. FIG. 2C and FIG. 2D show charcoal agar plates streaked with E. coli containing the two plasmids indicated in B. The control plate lacks IPTG (FIG. 2C) while the IPTG plate was treated with 1 mM IPTG for 24 hours (FIG. 2D). […] Graphs depict % fluorescence change (excitation 488 nm; emission 530 nm) measured using a microplate reader 6 hr after addition of the indicated drug. Error bars indicate ±SEM (n=6). FIG. 2F is a schematic diagram showing mechanism of action for each drug.
Next, the ability of PKA-PhosFluor to monitor PKA activity in mammalian cells was examined. PKA activity is regulated by the level of cAMP, which itself, is regulated by other signaling pathways and cell growth (Uhler et al., 1986). […] All the drugs used have widely varying mechanisms of action (FIG. 2F).

Row | SMILES | fluorescence of PKA-PhosFluor (% fluorescence change)
1 | CCCCCCOC(=O)[C@]1(O)C[C@@H]2O[C@@]1(C)n1c3ccccc3c3c4c(c5c6ccccc6n2c5c31)C(=O)NC4 [KT-5720] | reduced fluorescence
2 | CC(C)Cn1c(=O)n(C)c(=O)c2[nH]cnc21 [IBMX] | induced fluorescence
3 | Nc1ncnc2c1ncn2[C@@H]1O[C@@H]2COP(O)(=S)O[C@H]2[C@H]1O (some centres unmarked) [Rp-cAMP] | reduced fluorescence
4 | O=S(=O)(NCCNC/C=C/c1ccc(Br)cc1)c1cccc2cnccc12 [H89] | reduced fluorescence
5 | Nc1ncnc2c1nc(Br)n2[C@@H]1O[C@@H]2COP(=O)(O)O[C@H]2[C@H]1O [br-cAMP] | induced fluorescence
